PubChem BioAssay (NCI)
Several values for one entry are separate records, joined by “and”; a condition that tells them apart may be missing. Equal values may be shown once.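 A five-concentration, 48-hour dose response in 96-well plates underlies each endpoint, interpolated linearly between surrounding concentrations. GI50 marks 50% less growth. TGI: total growth inhibition.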

What was measured:
Test in all cases: inhibition of tumour cell growth, NCI panel, 48 h
[1] = system: HCC-2998 colon
[2] = system: MCF7 breast
[3] = system: NCI-H226 lung
[4] = system: NCI-H23 lung
[5] = system: NCI-H522 lung
[6] = system: OVCAR-4 ovarian
[7] = system: SF-295 CNS
[8] = system: SF-539 CNS
[9] = system: SK-MEL-28 melanoma
[10] = system: U251 CNS

SMILES	GI50 [1]	TGI [1]	GI50 [2]	TGI [2]	GI50 [3]	TGI [3]	GI50 [4]	TGI [4]	GI50 [5]	TGI [5]	GI50 [6]	TGI [6]	GI50 [7]	TGI [7]	GI50 [8]	TGI [8]	GI50 [9]	TGI [9]	GI50 [10]	TGI [10]
CC(=O)N[C@@H](Cc1ccc(OP(=O)(O)O)cc1)C(=O)N[C@H]1CCC(=O)N2CCC[C@@H](C(=O)NC3CCc4ccccc43)N2C1=O (stereo partly specified)	> 25 µM	> 25 µM	> 25 µM	> 25 µM	> 25 µM	> 25 µM	> 25 µM	> 25 µM	> 25 µM	> 25 µM	> 25 µM	> 25 µM	> 25 µM	> 25 µM	> 25 µM	> 25 µM	> 25 µM	> 25 µM	> 25 µM	> 25 µM
C[C@]12CC[C@H]3[C@@H](CC[C@]4(O)C[C@@H](O[C@@H]5O[C@H](CO)[C@@H](O[C@@H]6OC[C@@H](O)[C@H](O)[C@H]6O)[C@H](O)[C@H]5O)CC[C@]34C=O)[C@@]1(O)CC[C@@H]2C1=CC(=O)OC1	3.09 µM	21.3 µM	1.3 µM	7.57 µM	1.47 µM	3.69 µM	0.839 µM	2.71 µM	0.237 µM	1.51 µM	0.91 µM	2.8 µM	1.7 µM	6.27 µM	0.853 µM	1.84 µM	2.76 µM	15.6 µM	1.68 µM	5.67 µM
COc1c(B(O)O)cccc1-c1nc2c(F)cc3n[nH]c(C)c3c2c2c1CCCC2	2.45 µM	48.5 µM	1.43 µM	> 50 µM	0.892 µM	> 14.2 µM	1.33 µM	> 27.8 µM	1.11 µM	8.81 µM	2.71 µM	> 42.1 µM	1.28 µM	> 40.6 µM	0.212 µM	2.97 µM	2.1 µM	> 38.8 µM	1.12 µM	> 50 µM
O=C(CN1CCN(C(=O)c2ccco2)CC1)Nc1ccc(Cl)cc1C(=O)c1ccccc1Cl	14.8 µM	29.4 µM	5.31 µM	21.7 µM	13.3 µM	44.8 µM	10.4 µM	62.2 µM	4.16 µM	27.4 µM	5.91 µM	31.5 µM	3.13 µM	15.4 µM	13.6 µM	26.9 µM	11.6 µM	23.9 µM	8 µM	23.6 µM
Cc1c(Cl)c(C)c(Cl)c(O)c1Cl	–	50.6 µM	–	> 100 µM	–	63.3 µM	–	94 µM	–	50.7 µM	–	> 100 µM	–	> 100 µM	–	> 100 µM	–	> 100 µM	–	37.7 µM
O=C1OCC2=C1C(c1cccc(Cl)c1)c1cc3c(cc1N2CCO)CCC3 (stereo unspecified)	0.0922 µM	2.93 µM	0.0363 µM	12.9 µM	0.0527 µM	0.912 µM	0.0481 µM	14.3 µM	0.0203 µM	0.0603 µM	0.0609 µM	19.5 µM	0.0301 µM	11.9 µM	0.0361 µM	7.53 µM	0.0574 µM	20.2 µM	0.0372 µM	4.5 µM
O=C(/C=C/C=C/c1ccc2c(c1)OCO2)N/N=C\c1ccc(O)cc1O	2.44 µM	18.3 µM	2.6 µM	13.7 µM	2.78 µM	11.3 µM	2.11 µM	10.6 µM	2.9 µM	15.3 µM	0.459 µM	9.82 µM	0.925 µM	12.9 µM	2.7 µM	11.6 µM	2.97 µM	19.6 µM	1.64 µM	23 µM
CCOc1ccc2c(c1)C(=O)c1c-2n(CCCN=[N+]=[N-])c(=O)c2cc([N+](=O)[O-])ccc12	19.1 µM	> 100 µM	0.0261 µM	6.4 µM	2.24 µM	9.92 µM	0.997 µM	> 100 µM	3.58 µM	25.8 µM	18.9 µM	> 100 µM	4.16 µM	74.4 µM	3.88 µM	19 µM	51.7 µM	> 100 µM	3.57 µM	37.7 µM
COc1ncc(-c2ccc3nccc(C#CCCCCC(=O)NO)c3c2)cc1NS(=O)(=O)c1ccc(F)cc1F	0.0758 µM	4.26 µM	0.0186 µM	4.45 µM	1.59 µM	15.5 µM	0.984 µM	13 µM	0.0929 µM	2.31 µM	1.72 µM	14.1 µM	0.0701 µM	2.03 µM	0.0689 µM	1.34 µM	0.0692 µM	2.1 µM	0.128 µM	2.67 µM
CC1[C@@H]2CC=C3[C@H]4CCC5Cc6nc7c(nc6C[C@@]5(C)C4CC(=O)[C@]32CO[C@]12OC(C)(C)CC2O)CC1CC[C@@H]2C3=C[C@H]4O[C@@]5(O[C@@](C)(CO)C[C@@H]5O)C(C)[C@@]4(O)[C@]3(C)[C@@H](O)CC2[C@]1(C)C7 (stereo partly specified)	0.292 µM	0.912 µM and > 3.65 µM	0.000482 µM and 0.00142 µM	–	–	0.0901 µM and 0.103 µM	0.00281 µM	0.275 µM and 0.0672 µM	0.0131 µM	–	0.039 µM and 0.0985 µM	0.921 µM and > 3.65 µM	0.000124 µM and < 0.000365 µM	0.000434 µM and < 0.000365 µM	0.00016 µM and 0.000365 µM	–	0.00062 µM	0.00273 µM	0.000183 µM and 0.000365 µM	0.129 µM and 0.0461 µM
COC(=O)c1c2c(c(C)[n+]([O-])c1C)C(=O)C(NCc1ccc(O)cc1)=CC2=O	1.46 µM	3.23 µM	0.416 µM	2 µM	2.06 µM	4.36 µM	1.43 µM	3.5 µM	1.43 µM	3.49 µM	1.03 µM	2.23 µM	1.67 µM	3.17 µM	1.68 µM	3.07 µM	2.26 µM	4.36 µM	1.77 µM	5.26 µM
Cc1[nH]nc(C(=O)N/N=C/c2ccccc2Cl)c1N=NN(C)C	–	> 100 µM	–	> 100 µM	–	> 100 µM	–	> 100 µM	–	> 100 µM	–	> 100 µM	–	> 100 µM	–	> 29.9 µM	–	> 100 µM	–	> 100 µM
CN(C)CCCCNc1ccc(NCCCCN(C)C)c2c1C(=O)c1c(O)ccc(O)c1C2=O	1.58 µM	2.93 µM	1.59 µM	2.99 µM	14.9 µM	28.1 µM	1.63 µM	2.98 µM	1.77 µM	3.58 µM	1.42 µM	2.76 µM	1.75 µM	3.3 µM	10.9 µM	24.6 µM	17.8 µM	31.7 µM	1.69 µM	3.08 µM
C=CC(=O)N1CCC[C@@H](n2nc(-c3ccc(Oc4ccccc4)cc3)c3c(N)ncnc32)C1	> 10 µM	> 10 µM	> 8.82 µM	> 10 µM	> 6.06 µM	> 10 µM	> 10 µM	> 10 µM	0.0859 µM	> 10 µM	> 10 µM	> 10 µM	> 9.42 µM	> 10 µM	> 6.36 µM	> 10 µM	> 10 µM	> 10 µM	9.81 µM	> 10 µM
CC[C@@H](C)/C=C(C)/C=C/C(=O)c1c(O)c(-c2ccc(O)cc2)cn(OC2CC(=O)CCC(C)OC(=O)CC2O)c1=O (stereo partly specified)	2.53 µM	13.6 µM	0.366 µM	17 µM	0.285 µM	3.05 µM	0.406 µM	9.29 µM	0.419 µM	11.5 µM	0.233 µM	26 µM	0.331 µM	4.89 µM	0.366 µM	3.84 µM	0.552 µM	19.5 µM	0.373 µM	12.5 µM
Cn1c(=O)c(Oc2ccc(F)cc2F)cc2cnc(NCC(C)(C)O)nc21	> 25 µM	> 25 µM	> 25 µM	> 25 µM	> 25 µM	> 25 µM	> 25 µM	> 25 µM	> 25 µM	> 25 µM	> 25 µM	> 25 µM	> 25 µM	> 25 µM	> 25 µM	> 25 µM	> 25 µM	> 25 µM	> 25 µM	> 25 µM
Fc1ccc(Nc2nc3nonc3nc2Nc2ccc(I)cc2)cc1	0.425 µM	9.24 µM	0.277 µM	4.08 µM	0.319 µM	1.94 µM	0.265 µM	1.31 µM	0.192 µM	0.693 µM	0.283 µM	64.5 µM	0.214 µM	0.792 µM	0.275 µM	2.58 µM	0.34 µM	4.63 µM	0.293 µM	10.8 µM
CCN(CC)CC(O)c1cc(-c2ccc(Cl)cc2)nc2c(C)c(Cl)ccc12 (stereo unspecified)	1.77 µM	3.23 µM	1.5 µM	2.9 µM	1.65 µM	3.18 µM	1.78 µM	3.3 µM	1.85 µM	3.29 µM	1.9 µM	3.35 µM	1.86 µM	3.5 µM	1.49 µM	3.03 µM	1.78 µM	3.17 µM	1.77 µM	3.33 µM
